In PMC12225141 (BMC Chemistry, 2025):

Target: calf intestinal alkaline phosphatase (cIAP) (Bos taurus, UniProt P19111)
Experiment: spectrophotometric p-NPP hydrolysis assay at […] nm, commercial cIAP
Type: biochemical

Chain of calf intestinal alkaline phosphatase (cIAP) (P19111 20-506): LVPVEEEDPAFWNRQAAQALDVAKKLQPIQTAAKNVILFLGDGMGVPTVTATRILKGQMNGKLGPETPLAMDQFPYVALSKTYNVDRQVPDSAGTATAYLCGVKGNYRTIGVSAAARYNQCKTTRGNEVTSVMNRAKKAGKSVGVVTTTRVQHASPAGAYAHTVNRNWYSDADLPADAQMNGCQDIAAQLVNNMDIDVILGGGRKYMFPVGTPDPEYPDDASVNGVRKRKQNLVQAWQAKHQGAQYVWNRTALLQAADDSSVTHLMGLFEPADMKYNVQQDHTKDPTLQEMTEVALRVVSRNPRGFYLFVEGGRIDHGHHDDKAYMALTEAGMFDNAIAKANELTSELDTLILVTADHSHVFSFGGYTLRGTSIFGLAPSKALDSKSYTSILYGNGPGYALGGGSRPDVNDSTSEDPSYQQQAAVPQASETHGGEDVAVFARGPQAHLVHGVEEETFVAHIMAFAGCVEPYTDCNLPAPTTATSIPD

IC50: 9.875 ± 0.05 µM
Compound: CCNC(=S)NC(=O)c1cccc2ccccc12 [NA-MT, N-(ethylcarbamothioyl)-1-naphthamide]
